Key:
[1] = target: KCNA1 (Homo sapiens, UniProt Q09470); assay: Two-electrode voltage-clamp of KCNA1 in Xenopus oocytes; type: cell-based
Text: (§1) cRNA transcripts encoding human KCNA1, KCNQ1, KCNQ2, KCNQ3, KCNQ4, or KCNQ5 were generated by in vitro transcription using the T7 polymerase message machine kit (Thermo Fisher Scientific), after vector linearization, from cDNA sub-cloned into plasmids incorporating X. laevis β-globin 5′ and 3′ UTRs flanking the coding region to enhance translation and cRNA stability. cRNA was quantified by spectrophotometry. Mutant cDNAs were generated by site-directed mutagenesis using a QuikChange kit according to manufacturer’s protocol (Stratagene, San Diego, CA) and corresponding cRNAs prepared as above. Defolliculated stage V and VI X. laevis oocytes (Ecocyte Bioscience, Austin, TX) were injected with Kv channel α subunit cRNAs (10 ng total per oocyte). Oocytes were incubated at 16 °C in Barth’s saline solution (Ecocyte) containing penicillin and streptomycin, with daily washing, for 3–5 days prior to two-electrode voltage-clamp (TEVC) recording.
Oocytes were placed in a small-volume oocyte bath (Warner) and viewed with a dissection microscope. Chemicals were sourced from Sigma. Bath solution was (in mM): 96 NaCl, 4 KCl, 1 MgCl2, 1 CaCl2, 10 HEPES (pH 7.6). […] MTX (DMSO), sorbic acid (ethanol), and glutaconic acid (molecular grade H2O) were stored at −20 °C as 1 M stocks. Oleamide was stored as a 1 mM stock in ethanol at 4 °C. Palmitic acid was conjugated with bovine serum albumin as a 1 mM stock and stored at −20 °C. All compounds were diluted to working concentrations each experimental day. All compounds were introduced to the recording bath via gravity perfusion at a constant flow of 1 ml/min for 3 min prior to recording. Pipettes were of 1–2 MΩ resistance when filled with 3 M KCl. Currents were recorded in response to pulses between −80 and +40 mV at 20 mV intervals, or a single pulse to +40 mV, from a holding potential of −80 mV, to yield current–voltage relationships, current magnitude, and for quantifying activation rate. […]

[2] = tested on: pentylene tetrazole-induced seizures; assay: PTZ chemoconvulsant assay; type: in vivo, mouse; settings: mice
Text: We compared anticonvulsant activities of test compounds in male C57BL/6 mice (Charles River) aged 2–3 months. Mice were housed and used according to the recommendations in the Guide for the Care and Use of Laboratory Animals of the National Institutes of Health (NIH Publication, 8th edition, 2011). The study protocol was approved by the Institutional Animal Care and Use Committee of University of California, Irvine, which confirmed that all relevant ethical regulations were adhered to. Chemicals were sourced from Sigma (St. Louis, MO, USA) . A pentylene tetrazole (PTZ) chemoconvulsant assay was used[54]. […] Following the PTZ injection, mice were caged individually and an observer (GWA) blinded to the drug used recorded, over 20 min, clonic and tonic seizure incidence, and seizure-related mortality.
All values are expressed as mean ± SEM. Chi-squared analysis was used to compare seizure-related mortality in mice. One-way ANOVA was applied for all other tests; if multiple comparisons were performed, a post-hoc Tukey’s HSD test was performed following ANOVA. All p-values were two-sided. Statistical significance was defined as p < 0.05.

[3] = set-up: method as in PMID 24781306; settings: cited from earlier work
[4] = target: T1, KCNQ2/3 channels (Homo sapiens, UniProt O43525+O43526); settings: previously found, cited from earlier work
[5] = target: T1, KCNQ2/3 channels; assay: Two-electrode voltage-clamp of KCNQ2/3 channels expressed in Xenopus laevis oocytes; type: cell-based; settings: for Non-normalized tail current V0.5 / Normalized tail current V0.5 / Slope: KCNQ2/3
Text: as §1
(§2) Oocytes were placed in a small-volume oocyte bath (Warner) and viewed with a dissection microscope. Chemicals were sourced from Sigma. Bath solution was (in mM): 96 NaCl, 4 KCl, 1 MgCl2, 1 CaCl2, 10 HEPES (pH 7.6). […] MTX (DMSO), sorbic acid (ethanol), and glutaconic acid (molecular grade H2O) were stored at −20 °C as 1 M stocks. Oleamide was stored as a 1 mM stock in ethanol at 4 °C. Palmitic acid was conjugated with bovine serum albumin as a 1 mM stock and stored at −20 °C. All compounds were diluted to working concentrations each experimental day. All compounds were introduced to the recording bath via gravity perfusion at a constant flow of 1 ml/min for 3 min prior to recording. Pipettes were of 1–2 MΩ resistance when filled with 3 M KCl. Currents were recorded in response to pulses between −80 and +40 mV at 20 mV intervals, or a single pulse to +40 mV, from a holding potential of −80 mV, to yield current–voltage relationships, current magnitude, and for quantifying activation rate. TEVC data analysis was performed with Clampfit10.2 (Molecular Devices) and Graphpad Prism software (GraphPad, San Diego, CA, USA); values are stated as mean ± SEM. Normalized tail currents were plotted versus prepulse voltage and fitted with a single Boltzmann function:1 g=A1-A2/1+expV12-Vy+A2, where g is the normalized tail conductance, A1 is the initial value at −∞, A2 is the final value at +∞, V1/2 is the half-maximal voltage of activation, and Vs the slope factor. Activation and deactivation kinetics were fitted with single-exponential functions.

[6] = target: KCNQ2-W236L/KCNQ3-W265L channels (Homo sapiens, UniProt O43525+O43526, W236L/W265L); assay: Two-electrode voltage-clamp of W236L-Q2/W265L-Q3 mutant channels in Xenopus oocytes; type: cell-based; settings: 100 µM
Text: as §1, §2

[7] = target: T2, KCNQ2 (Homo sapiens, UniProt O43526); assay: Two-electrode voltage-clamp of homomeric KCNQ2 in Xenopus oocytes; type: cell-based; settings: KCNQ2; 1 µM
Text: as §1, §2

[8] = target: KCNQ4 (Homo sapiens, UniProt P56696); assay: cell-based; type: cell-based; settings: KCNQ4; 1 µM
Text: as §1, §2

[9] = target: KCNQ5 (Homo sapiens, UniProt Q9NR82); assay: cell-based; type: cell-based; settings: KCNQ5; 1 µM
Text: as §1, §2

[10] = target: KCNQ3* (KCNQ3-A315T) (Homo sapiens, UniProt O43525, A315T); assay: cell-based; type: cell-based; settings: KCNQ3*; 1 µM
KCNQ3* (KCNQ3-A315T), sequence (O43525 whole entry A315T, looked up): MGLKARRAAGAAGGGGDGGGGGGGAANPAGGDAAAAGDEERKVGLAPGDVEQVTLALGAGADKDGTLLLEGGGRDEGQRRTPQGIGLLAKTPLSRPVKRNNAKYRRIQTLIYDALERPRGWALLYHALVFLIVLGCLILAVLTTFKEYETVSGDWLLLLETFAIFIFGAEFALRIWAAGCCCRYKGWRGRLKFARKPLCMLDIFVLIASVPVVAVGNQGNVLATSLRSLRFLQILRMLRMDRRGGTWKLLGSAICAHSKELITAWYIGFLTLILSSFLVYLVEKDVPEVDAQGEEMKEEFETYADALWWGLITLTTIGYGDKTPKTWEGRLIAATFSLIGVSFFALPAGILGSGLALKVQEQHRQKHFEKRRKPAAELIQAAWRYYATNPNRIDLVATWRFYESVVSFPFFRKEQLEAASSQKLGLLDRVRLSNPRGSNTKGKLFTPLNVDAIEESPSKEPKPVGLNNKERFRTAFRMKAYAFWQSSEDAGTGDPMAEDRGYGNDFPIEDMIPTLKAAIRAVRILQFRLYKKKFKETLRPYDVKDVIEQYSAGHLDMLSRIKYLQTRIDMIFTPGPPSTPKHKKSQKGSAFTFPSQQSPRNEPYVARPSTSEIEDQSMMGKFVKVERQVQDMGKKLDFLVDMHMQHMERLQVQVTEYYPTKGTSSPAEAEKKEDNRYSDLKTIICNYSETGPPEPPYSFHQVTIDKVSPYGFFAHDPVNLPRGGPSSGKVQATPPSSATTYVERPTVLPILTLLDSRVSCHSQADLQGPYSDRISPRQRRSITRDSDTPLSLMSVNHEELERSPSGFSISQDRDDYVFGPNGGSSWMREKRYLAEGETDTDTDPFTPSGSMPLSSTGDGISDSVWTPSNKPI
Text: as §1, §2

[11] = tested on: KCNQ2–5; settings: cited from earlier work
[12] = target: T2, KCNQ2; set-up: method as in PMID 11466425; settings: 10 µM RTG; cited from earlier work
[13] = cited from earlier work

KCNA1, sequence (Q09470 whole entry): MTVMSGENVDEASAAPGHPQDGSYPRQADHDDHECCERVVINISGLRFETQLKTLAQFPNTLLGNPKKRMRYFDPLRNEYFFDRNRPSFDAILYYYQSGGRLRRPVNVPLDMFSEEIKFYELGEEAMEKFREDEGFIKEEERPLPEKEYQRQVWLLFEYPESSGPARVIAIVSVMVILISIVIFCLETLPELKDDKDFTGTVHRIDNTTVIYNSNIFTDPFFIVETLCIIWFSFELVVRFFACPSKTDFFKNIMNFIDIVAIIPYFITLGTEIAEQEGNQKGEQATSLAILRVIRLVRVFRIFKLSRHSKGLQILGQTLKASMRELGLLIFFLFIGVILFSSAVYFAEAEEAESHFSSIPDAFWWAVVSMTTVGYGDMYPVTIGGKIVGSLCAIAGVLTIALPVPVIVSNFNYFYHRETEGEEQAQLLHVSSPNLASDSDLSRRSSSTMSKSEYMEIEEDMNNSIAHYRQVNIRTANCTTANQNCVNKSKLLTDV

CC(C)CC(=O)O [IVA, isovaleric acid]
Slope ([1]; KCNA1 (table title), 500 µM): 6.9 ± 1.1 mV
effect on KCNA1 currents ([1]; MTX concentration not given, IVA 500 µM): did not alter currents
clonic seizure incidence ([2]; 10 mg/kg i.p. alone): neither compound reduced clonic seizures alone
clonic seizure incidence ([2]; 20 mg/kg i.p., 30 min before 80 mg kg−1 PTZ): no effect
suppression of PTZ-induced tonic seizures ([2]; individually): ineffective

CC(=O)O [acetate]
crossing of the blood brain barrier [3]: readily cross the blood brain barrier

CCCCC(=O)O [valeric acid]
ability to activate KCNQ2/3 channels [4]: inactive

NCC(O)CC(=O)O (stereo not drawn) [GABOB, γ-amino-β-hydroxybutyric acid, reference compound]
EC50 ([4]; high affinity partial agonist): 120 nM
effect of GABOB on IVA effects on KCNQ2/3 ([5]; GABOB 100 µM with IVA 500 µM): highly effective at competing out effects of IVA
effect of GABOB on MTX effects on KCNQ2/3 ([5]; GABOB 100 µM with MTX 30 µM): only partially diminishes

Oc1ccccc1S [2-Mercaptophenol, 2-mercaptophenol]
sensitivity of KCNQ2-W236L/KCNQ3-W265L channels [6]: insensitive
Non-normalized tail current V0.5 ([6]; W236L-Q2/W265L-Q3): -53.8 ± 1.7 mV
Normalized tail current V0.5 ([6]; W236L-Q2/W265L-Q3): -51.0 ± 4.2 mV
effect on voltage dependence of KCNQ2/3 activation (initial screen) ([5]; 100 µM, tail currents at −30 mV): positive-shifted
effect of 2-mercaptophenol on ability of MTX to activate KCNQ2/3 ([5]; 2-mercaptophenol 100 µM with MTX 30 µM): did not alter
Non-normalized tail current V0.5 ([5]; 0.01 µM): -37.2 ± 3.7 mV
Normalized tail current V0.5 ([5]; 0.01 µM): -37.7 ± 1.5 mV
Slope ([5]; 0.01 µM): 7.4 ± 1.6 mV
Non-normalized tail current V0.5 ([5]; 0.1 µM): -40.9 ± 3.2 mV
Normalized tail current V0.5 ([5]; 0.1 µM): -43.4 ± 3.6 mV
Slope ([5]; 0.1 µM): 5.4 ± 1.2 mV
Non-normalized tail current V0.5 ([5]; 1 µM): -43.2 ± 2.6 mV
Normalized tail current V0.5 ([5]; 1 µM): -43.6 ± 0.8 mV
Slope ([5]; 1 µM): 6.4 ± 0.9 mV
Non-normalized tail current V0.5 ([5]; 10 µM): -43.2 ± 2.8 mV
Normalized tail current V0.5 ([5]; 10 µM): -43.7 ± 1.1 mV
Slope ([5]; 10 µM): 7.4 ± 1.1 mV
Non-normalized tail current V0.5 ([5]; 100 µM): -34.5 ± 4.6 mV
Normalized tail current V0.5 ([5]; 100 µM): -29.5 ± 2.5 mV
Slope ([5]; 100 µM): 5.0 ± 1.2 mV
Non-normalized tail current V0.5 ([5]; 300 µM): -22.5 ± 7.2 mV
Normalized tail current V0.5 ([5]; 300 µM): -19.8 ± 1.4 mV
Slope ([5]; 300 µM): 8.3 ± 0.9 mV
concentration at which KCNQ2/3 inhibition begins ([5]; activating at lower concentrations): ~ 100 µM

CCOC(=O)Nc1ccc(NCc2ccc(F)cc2)cc1N [Retigabine, retigabine, reference compound]
Non-normalized tail current V0.5 [7]: -51.6 ± 6.6 mV
Normalized tail current V0.5 [7]: -51.7 ± 0.7 mV
Non-normalized tail current V0.5 [8]: -10.2 ± 7.5 mV
Normalized tail current V0.5 [8]: -9.7 ± 1.1 mV
Non-normalized tail current V0.5 [9]: -45.8 ± 2.8 mV
Normalized tail current V0.5 [9]: -46.0 ± 0.9 mV
Non-normalized tail current V0.5 [10]: -63.9 ± 7.7 mV
Normalized tail current V0.5 [10]: -61.9 ± 2.2 mV
order of potency across KCNQ isoforms [11]: KCNQ3 > KCNQ2/3 > KCNQ2 > KCNQ4 > KCNQ5
shift in midpoint voltage of activation [12]: −24 mV
effects on KCNQ2/3 ([5]; 1 µM alone): negligible effects
Non-normalized tail current V0.5 ([5]; 1 µM): -41.7 ± 2.3 mV
Normalized tail current V0.5 ([5]; 1 µM): -41.9 ± 0.7 mV
Non-normalized tail current V0.5 ([5]; 10 µM): -61.8 ± 4.8 mV
Normalized tail current V0.5 ([5]; 10 µM): -61.4 ± 1.1 mV
Slope ([5]; 10 µM): 6.7 ± 1.1 mV
shift of KCNQ2/3 activation V0.5 ([5]; RTG 10 µM): −13 mV

CC(C)CC(N)=O [Isovaleramide, isovaleramide]
passage through biological membranes [13]: readily passes though biological membranes
mean Tmax ([13]; humans): 0.5 to 0.75 h
mean elimination half-life ([13]; humans): 2.5 h
well tolerated dose ([13]; humans): at least 2400 mg per day
